Data as given in patent US20060069132A1, “Azolecarboxamide herbicides” (priority 2004, published 2006).

How the values were obtained:
barnyardgrass [1] = experiment: Test B pre-/postemergence herbicide test; assay type: in vivo, Echinochloa crus-galli
In short: (§1)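 Formulation: non-phytotoxic solvent mix with surfactant. Timing: preemergence on seed and postemergence on 2–18 cm plants, applied concurrently. Readout after 13–15 d greenhouse: visual 0–100 control rating against controls.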

corn = experiment: Test B pre-/postemergence herbicide test; assay type: in vivo, Zea mays
In short: (§2)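 Response was scored visually 13 to 15 days after treatment against untreated greenhouse controls, 0 meaning no effect and 100 complete control. Formulations (solvent mixture plus surfactant) went onto soil after planting, onto foliage of 1- to 4-leaf plants, and onto 2-leaf plants in a flooded paddy set including rice and barnyardgrass.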

rice = experiment: Test B flooded paddy test; assay type: in vivo, Oryza sativa; details: scale 0 to 100 (0 no effect, 100 complete control)
In short: (§3)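 Postemergence plants were sprayed with formulated test chemicals at 2 to 18 cm height (1- to 4-leaf stage); paddy species were grown to the 2-leaf stage. After 13 to 15 days in a greenhouse, injury was rated visually against untreated controls on a 0–100 scale (0 = no effect, 100 = complete control).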

wild oat = experiment: Test B postemergence herbicide test; assay type: in vivo, Avena fatua
In short: as §3

morningglory = experiment: Test B pre-/postemergence herbicide test; assay type: in vivo, Ipomoea coccinea
In short: as §1

barnyardgrass [2] = experiment: Test B flooded paddy test; assay type: in vivo, Echinochloa crus-galli; details: scale 0 to 100 (0 no effect, 100 complete control)
In short: (§4)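 Scale 0–100: zero equals no visible effect, 100 complete control, judged by eye relative to controls. Timing: 13 to 15 days in greenhouse post-treatment. Growth stage at spraying: two leaves (paddy) or one to four leaves, 2–18 cm (postemergence).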

cocklebur = experiment: Test B pre-/postemergence herbicide test; assay type: in vivo, Xanthium strumarium
In short: as §1

lambsquarters = experiment: Test B pre-/postemergence herbicide test; assay type: in vivo, Chenopodium album
In short: as §2

Surinam grass = experiment: Test B pre-/postemergence herbicide test; assay type: in vivo, Urochloa decumbens
In short: as §2

large crabgrass = experiment: Test B pre-/postemergence herbicide test; assay type: in vivo, Digitaria sanguinalis
In short: as §2

wheat = experiment: Test B postemergence herbicide test; assay type: in vivo, Triticum aestivum; parameters: key to Wheat plant response rating: 0 = no effect, 100 = complete control
In short: as §3

giant foxtail = experiment: Test B pre-/postemergence herbicide test; assay type: in vivo, Setaria faberi
In short: as §2

pigweed = experiment: Test B pre-/postemergence herbicide test; assay type: in vivo, Amaranthus retroflexus
In short: as §2

blackgrass = experiment: Test B postemergence herbicide test; assay type: in vivo, Alopecurus myosuroides
In short: as §4

[3] = system: small flower umbrella sedge; experiment: Test B flooded paddy test; assay type: in vivo, Cyperus difformis; details: scale 0 to 100 (0 no effect, 100 complete control)
In short: as §4

ducksalad = experiment: Test B flooded paddy test; assay type: in vivo, Heteranthera limosa; details: scale 0 to 100 (0 no effect, 100 complete control)
In short: as §4

velvetleaf = experiment: Test B pre-/postemergence herbicide test; assay type: in vivo, Abutilon theophrasti
In short: as §2

[4] = Postemergence, 500 g ai/ha, scale 0 (no effect) to 100 (complete control)
[5] = postemergence, 125 g ai/ha, scale 0 to 100
[6] = 500 g ai/ha, scale 0 to 100, 0 no effect, 100 complete control, preemergence
[7] = 125 g ai/ha, 0 is no effect, 100 is complete control, preemergence
[8] = 125 g ai/ha, visual rating, scale 0 (no effect) to 100 (complete control), postemergence
[9] = postemergence, 500 g ai/ha, scale 0 to 100, 0 is no effect, 100 is complete control
[10] = 500 g ai/ha, visual rating 0-100, 0 no effect, 100 complete control, preemergence
[11] = Postemergence, 500 g ai/ha, visual rating after 13 to 15 days, scale 0 (no effect) to 100 (complete control)
[12] = postemergence, 125 g ai/ha, visual rating, scale 0 (no effect) to 100 (complete control)
[13] = preemergence, 125 g ai/ha, 0 to 100 scale, 0 is no effect, 100 is complete control
[14] = 1000 g ai/ha, visual rating, 13 to 15 days

Cc1nn(C(C)(C)C)nc1C(=O)Nc1cccc(C(=O)N2CC=CC2)n1 [Compound 441]
20: Lambsquarters plant response rating (lambsquarters; [4]) | Lambsquarters plant response rating (lambsquarters; [5]) | Wheat plant response rating (wheat; [5]) | Pigweed plant response rating (pigweed; [4]) | Pigweed plant response rating (pigweed; [5]) | Blackgrass plant response rating (blackgrass; [5])
0: Barnyardgrass plant response rating (barnyardgrass [1]; Postemergence, 125 g ai/ha, scale 0 (no effect) to 100 (complete control)) | Barnyardgrass plant response rating (barnyardgrass [1]; [4]) | Corn plant response rating (corn; [5]) | Rice plant response rating (rice; 125 g ai/ha) | Morningglory plant response rating (morningglory; [4]) | Morningglory plant response rating (morningglory; [5]) | Barnyardgrass plant response rating (barnyardgrass [2]; 125 g ai/ha) | Surinam Grass plant response rating (Surinam grass; [4]) | Surinam Grass plant response rating (Surinam grass; [5]) | Crabgrass, Large plant response rating (large crabgrass; [4]) | Crabgrass, Large plant response rating (large crabgrass; [5]) | Foxtail, Giant plant response rating (giant foxtail; [4]) | Foxtail, Giant plant response rating (giant foxtail; [5]) | Sedge, Umbrella plant response rating ([3]; 125 g ai/ha) | Ducksalad plant response rating (ducksalad; 125 g ai/ha) | Velvetleaf plant response rating (velvetleaf; [4]) | Velvetleaf plant response rating (velvetleaf; [5])
30: Corn plant response rating (corn; [4]) | Oat, Wild plant response rating (wild oat; [5]) | Wheat plant response rating (wheat; [6]) | Wheat plant response rating (wheat; [4])
40: Oat, Wild plant response rating (wild oat; [4]) | Blackgrass plant response rating (blackgrass; [4])
10: Cocklebur plant response rating (cocklebur; [4]) | Cocklebur plant response rating (cocklebur; [5])

CCc1nn(C(C)(C)CC)nc1C(=O)Nc1cccc(OC(F)(F)F)c1 [Compound 374]
70: Lambsquarters plant response rating (lambsquarters; [4]) | Pigweed plant response rating (pigweed; [4])
40: Oat, Wild plant response rating (wild oat; [4]) | Barnyardgrass plant response rating (barnyardgrass [2]; 1000 g ai/ha)
10: Barnyardgrass plant response rating (barnyardgrass [1]; [8]) | Corn plant response rating (corn; [8]) | Lambsquarters plant response rating (lambsquarters; [8]) | Plant response rating (0 to 100 scale), Surinam Grass (Surinam grass; [7]) | Surinam Grass plant response rating (Surinam grass; [8]) | Plant response rating (0 to 100 scale), Foxtail, Giant (giant foxtail; [7]) | Blackgrass plant response rating (blackgrass; [8]) | Velvetleaf plant response rating (velvetleaf; [8])
0: Plant response rating (0 to 100 scale), Barnyardgrass (barnyardgrass [1]; [7]) | Plant response rating (0 to 100 scale), Corn (corn; [7]) | Plant response rating (0 to 100 scale), Morningglory (morningglory; [7]) | Plant response rating (0 to 100 scale), Cocklebur (cocklebur; [7]) | Cocklebur plant response rating (cocklebur; [8]) | Plant response rating (0 to 100 scale), Crabgrass, Large (large crabgrass; [7]) | Wheat plant response rating (wheat; [8]) | Wheat plant response rating (wheat; [6]) | Sedge, Umbrella plant response rating ([3]; 1000 g ai/ha) | Plant response rating (0 to 100 scale), Velvetleaf (velvetleaf; [7])
20: Barnyardgrass plant response rating (barnyardgrass [1]; [9]) | Corn plant response rating (corn; [9]) | Rice plant response rating (rice; 1000 g ai/ha) | Oat, Wild plant response rating (wild oat; [8]) | Morningglory plant response rating (morningglory; [8]) | Morningglory plant response rating (morningglory; [4]) | Surinam Grass plant response rating (Surinam grass; [4]) | Crabgrass, Large plant response rating (large crabgrass; [8]) | Crabgrass, Large plant response rating (large crabgrass; [9]) | Wheat plant response rating (wheat; [4]) | Foxtail, Giant plant response rating (giant foxtail; [8]) | Foxtail, Giant plant response rating (giant foxtail; [9]) | Velvetleaf plant response rating (velvetleaf; [4])
50: Ducksalad plant response rating (ducksalad; 1000 g ai/ha)
30: Cocklebur plant response rating (cocklebur; [9]) | Plant response rating (0 to 100 scale), Pigweed (pigweed; [7]) | Pigweed plant response rating (pigweed; [8]) | Blackgrass plant response rating (blackgrass; [9])

CCCn1nc(C(C)(C)C)cc1C(=O)Nc1cccc(C(C)=NO)c1 [Compound 113]
100: Plant response rating, Morningglory (morningglory; [11]) | Plant response rating, Cocklebur (cocklebur; [11]) | Cocklebur plant response rating (cocklebur; [12]) | Plant response rating, Lambsquarters (lambsquarters; [10]) | Plant response rating, Lambsquarters (lambsquarters; [11]) | Plant response rating, Crabgrass, Large (large crabgrass; [10]) | Plant response rating, Crabgrass, Large (large crabgrass; [13]) | Plant response rating, Pigweed (pigweed; [10]) | Plant response rating, Pigweed (pigweed; [11])
90: Plant response rating, Barnyardgrass (barnyardgrass [1]; [10]) | Lambsquarters plant response rating (lambsquarters; [12]) | Pigweed plant response rating (pigweed; [12]) | Sedge, Umbrella plant response rating [3, 14] | Ducksalad plant response rating (ducksalad; [14])
30: Barnyardgrass plant response rating (barnyardgrass [1]; [12]) | Plant response rating, Corn (corn; [11]) | Corn plant response rating (corn; [12]) | Crabgrass, Large plant response rating (large crabgrass; [12]) | Plant response rating, Wheat (wheat; [11]) | Plant response rating, Foxtail, Giant (giant foxtail; [10]) | Foxtail, Giant plant response rating (giant foxtail; [12])
0: Plant response rating, Corn (corn; [10]) | Plant response rating, Corn (corn; [13]) | Plant response rating, Morningglory (morningglory; [13]) | Plant response rating, Cocklebur (cocklebur; [13]) | Plant response rating, Pigweed (pigweed; [13])
60: Plant response rating, Barnyardgrass (barnyardgrass [1]; [13]) | Rice plant response rating (rice; [14]) | Plant response rating, Oat, Wild (wild oat; [11]) | Plant response rating, Surinam Grass (Surinam grass; [11]) | Plant response rating, Velvetleaf (velvetleaf; [11])
40: Oat, Wild plant response rating (wild oat; [12]) | Surinam Grass plant response rating (Surinam grass; [12]) | Plant response rating, Foxtail, Giant (giant foxtail; [11])
20: Morningglory plant response rating (morningglory; [12]) | Plant response rating, Cocklebur (cocklebur; [10]) | Plant response rating, Blackgrass (blackgrass; [11]) | Plant response rating, Velvetleaf (velvetleaf; [10]) | Velvetleaf plant response rating (velvetleaf; [12]) | Plant response rating, Velvetleaf (velvetleaf; [13])
70: Barnyardgrass plant response rating (barnyardgrass [2]; [14])
10: Plant response rating, Surinam Grass (Surinam grass; [10]) | Plant response rating, Surinam Grass (Surinam grass; [13]) | Wheat plant response rating (wheat; [12]) | Plant response rating, Foxtail, Giant (giant foxtail; [13]) | Blackgrass plant response rating (blackgrass; [12])
50: Plant response rating, Morningglory (morningglory; [10])
80: Plant response rating, Barnyardgrass (barnyardgrass [1]; [11]) | Plant response rating, Lambsquarters (lambsquarters; [13]) | Plant response rating, Crabgrass, Large (large crabgrass; [11])

CCNC(=O)c1ccc(F)c(NC(=O)c2nn(C(C)C)nc2C)c1 [Compound 401]
0: Plant response rating (0 to 100 scale), Barnyardgrass (barnyardgrass [1]; [7]) | Barnyardgrass plant response rating (barnyardgrass [1]; [8]) | Barnyardgrass plant response rating (barnyardgrass [1]; [4]) | Plant response rating (0 to 100 scale), Corn (corn; [7]) | Corn plant response rating (corn; [8]) | Corn plant response rating (corn; [4]) | Oat, Wild plant response rating (wild oat; [8]) | Oat, Wild plant response rating (wild oat; [4]) | Plant response rating (0 to 100 scale), Morningglory (morningglory; [7]) | Morningglory plant response rating (morningglory; [8]) | Morningglory plant response rating (morningglory; [4]) | Barnyardgrass plant response rating (barnyardgrass [2]; 1000 g ai/ha) | Plant response rating (0 to 100 scale), Cocklebur (cocklebur; [7]) | Cocklebur plant response rating (cocklebur; [8]) | Cocklebur plant response rating (cocklebur; [4]) | Plant response rating (0 to 100 scale), Lambsquarters (lambsquarters; [7]) | Lambsquarters plant response rating (lambsquarters; [8]) | Lambsquarters plant response rating (lambsquarters; [4]) | Plant response rating (0 to 100 scale), Surinam Grass (Surinam grass; [7]) | Surinam Grass plant response rating (Surinam grass; [8]) | Surinam Grass plant response rating (Surinam grass; [4]) | Plant response rating (0 to 100 scale), Crabgrass, Large (large crabgrass; [7]) | Crabgrass, Large plant response rating (large crabgrass; [8]) | Crabgrass, Large plant response rating (large crabgrass; [4]) | Wheat plant response rating (wheat; [8]) | Wheat plant response rating (wheat; [6]) | Wheat plant response rating (wheat; [4]) | Plant response rating (0 to 100 scale), Foxtail, Giant (giant foxtail; [7]) | Foxtail, Giant plant response rating (giant foxtail; [8]) | Foxtail, Giant plant response rating (giant foxtail; [4]) | Plant response rating (0 to 100 scale), Pigweed (pigweed; [7]) | Pigweed plant response rating (pigweed; [8]) | Pigweed plant response rating (pigweed; [4]) | Blackgrass plant response rating (blackgrass; [8]) | Blackgrass plant response rating (blackgrass; [4]) | Sedge, Umbrella plant response rating ([3]; 1000 g ai/ha) | Ducksalad plant response rating (ducksalad; 1000 g ai/ha) | Plant response rating (0 to 100 scale), Velvetleaf (velvetleaf; [7]) | Velvetleaf plant response rating (velvetleaf; [8]) | Velvetleaf plant response rating (velvetleaf; [4])
20: Rice plant response rating (rice; 1000 g ai/ha)
